Results on one molecule are retold here after patent publication US20220370468A1, “Methods of treating sleep disorders associated with pain” (Astellas Pharma Global Development, Inc., priority 2019, published 2022).

Data set [1] can be described thus: Nonclinical studies: toxicological profile.
For data set [2], the system named is patients with fibromyalgia. Description: Phase 2a randomized double-blind placebo-controlled study: mean daily average pain score (NRS). Type of data set: in vivo, human. The protocol:
(§1) A phase 2a, randomized, double-blind, placebo-controlled, parallel group study was conducted at 24 sites in the United States to assess the analgesic efficacy and safety of the compound of Formula (I) in patients with fibromyalgia. The study consisted of the following: a screening period of up to 42 days, which included a washout period and a 7-day baseline diary run-in; a 57-day double-blind randomized treatment period with site visits at Days 1, 15, 29, and 57; and a 4-week follow-up period consisting of a clinic visit after 2 weeks and a phone call after 4 weeks. The study was carried out in accordance with the Declaration of Helsinki and approved by the relevant Institutional Review Boards. All participants provided written informed consent prior to the initiation of any study procedures.
Male and female patients aged 18 to 80 years were included in the trial if they met the American College of Rheumatology (ACR) 1990 and 2010 fibromyalgia diagnostic criteria at screening (Wolfe et al., 1990; Wolfe et al., 2010b). The core diagnostic criteria for fibromyalgia are defined by the 1990 criteria (Wolfe et al., 1990), and while ACR has published newer criteria, the 1990 version is still commonly utilized in clinical trials. […]
The primary efficacy endpoint for pain was change from baseline to Week 8 in mean daily average pain score assessed by the Numeric Rating Scale (NRS; 0 to 10 scale). […]
Secondary efficacy endpoints included the number of patients achieving a ≥30% or ≥50% reduction in mean daily average pain score assessed by NRS (0 to 10 scale) from baseline to Week 8 and end of treatment (EOT; Day 57); change from baseline to Weeks 2, 4, 8, and EOT in the FIQR function, symptoms, and overall impact subscales; and overall improvement assessed by patient global impression of change (PGIC) (Rampakakis et al., 2015) at Weeks 2, 4, 8, and EOT.

For data set [3], the target named is Kca3.1 potassium ion channel (Homo sapiens, UniProt O15554). Description: Kca3.1 channel activity (stated mechanism). Type of data set: biochemical.
Data set [4] has as its system patients with fibromyalgia. Description: Phase 2a study: patient global impression of change (PGIC). As to conditions: 15 mg once daily. Type of data set: in vivo, human. The protocol: as §1, with “procedures. […]” for “procedures.”
Secondary efficacy endpoints included the number of patients achieving a ≥30% or ≥50% reduction in mean daily average pain score assessed by NRS (0 to 10 scale) from baseline to Week 8 and end of treatment (EOT; Day 57); change from baseline to Weeks 2, 4, 8, and EOT in the FIQR function, symptoms, and overall impact subscales; and overall improvement assessed by patient global impression of change (PGIC) (Rampakakis et al., 2015) at Weeks 2, 4, 8, and EOT. […]

Data set [5] in a line: Nonclinical studies: brain penetration and ADME profile.

Structures are written as SMILES.

Turning to `Cc1sc2cc(Cl)ccc2c1-c1ccc(N2CCO[C@H](CNC3CCC3)C2)c(C(=O)O)c1` [Compound of Formula (I)], the toxicological profile entry in data set [1] is “acceptable toxicological profile”. In addition, in data set [2] (15 mg once daily), the “responder analysis of mean daily average pain score (≥30% or ≥50% reduction) versus placebo” value was “no statistically significant differences”. Moreover, the “change from baseline in mean daily average pain score versus placebo” value in data set [2] (Weeks 2, 6 and 7, FIG. 1) is reported as “statistically significant treatment differences in favor of Compound of Formula (I)”. Further, the “change from baseline in mean daily average pain score (NRS 0-10), primary endpoint” value in data set [2] (baseline to Week 8, 15 mg oral once daily, placebo −1.26) is reported as −1.60. Further, the “action on Kca3.1 potassium ion channel” value in data set [3] was “opener”. In addition, in data set [4], the “overall patient improvement assessed by PGIC versus placebo” value is reported as “no statistically significant differences”. Moreover, the brain penetration entry in data set [5] (nonclinical) was “poor brain penetration”. The “absorption, distribution, metabolism, and excretion (ADME) profile” value in data set [5] (nonclinical studies) is given as “acceptable”.
